From patent publication US20060040883A1, “Methods for treating cancer using anti-Wnt2 monoclonal antibodies and siRNA” (The Regents of the University of California, priority 2004, published 2006)

Columns and labels:
[1] = test system: MS1 mesothelioma cells; assay: Proliferation assay (tetrazolium conversion) in MS1 cells; format: cell-based, human; settings: three days
Description: Alimta® (MTA) was supplied by Eli Lilly (Indianapolis, Ind.). Alimta® was diluted in sterile physiological solution at a concentration of 10 mg/ml. The stock was divided into aliquots, stored at −80° C., and diluted in culture medium before each experiment. Wnt2 antibody was stored at 4° C. and used as previously described. Cell proliferation was determined by measuring metabolic activity of tetrazolium conversion (Cell Titer 96 assay, Promega, Madison, Wis.). Briefly, 5,000 cells were plated per well in a 96-well plate and culture medium containing increasing concentrations of both drugs was added. Plates were incubated at 37° C. for 72 hours in a CO2 incubator. Then a solubilization/stop solution was added and the absorbance was recorded with a […] at a wavelength of 570 nm. Each experiment was repeated at least 3 times in triplicate.
The effects of the anti-Wnt2 monoclonal antibody on cell proliferation were assessed and compared with the effects of Alimta®. Alimta® (LY231514, MTA, pemetrexed) is a novel multifunctional antifolate antimetabolite (Hanauske Lung Cancer 45 Suppl 1:S121-4 (2004)). […] Alimta® is now considered a standard in the treatment of surgically non-amenable mesothelioma. […] Three days later the cell proliferation was assessed by measuring the metabolic activity of cellular enzyme (here the tetrazolium conversion).

[2] = test system: JNK; assay: JNK activity; format: cell-based; settings: inhibition of Dvl by blocking CK-2 activity
Text: Through frizzled receptor and dishevelled protein, Wnt signal activates two distinct pathways: the canonical pathway (i.e., β catenin pathway) and the JNK pathway. Dishevelled protein has three highly conserved domains, DIX, PDZ, and DEP. Among them, the DIX and PDZ domains are necessary for the canonical signaling pathway while the DEP domain is important for the activation of JNK pathway. […] Most likely, the activation of JNK after anti-Wnt antibody treatment is through Dvl.

[3] = test system: A549, LOX and FEMX; assay: Specificity control with blocking peptide (apoptosis by flow cytometry); format: cell-based, human; settings: 300 μg/ml for 72 hrs, alone
Text: Cells were harvested by trypsinization and processed for determination of cell surface annexin-V and propodium iodide (PI) contents, according to the manufacture's protocol (Annexin V FITC Apoptosis Detection Kit (Oncogene, Cambridge, Mass.); Apotarget (BioSource International)). With the use of Annexin-V-PI double staining regime, three populations of cells are distinguishable in two color flow cytometry: (a) non-apoptotic cells: annexin-V and PI negative; (b) early apoptotic cells with exposed phosphatidylserine but intact cell membranes bound to Annexin V-FITC but excluded propidium iodide; and (c) cells in necrotic or late apoptotic stages were labeled with both Annexin V-FITC and propidium iodide. Then stained cells were immediately analyzed by flow cytometry (FACScan; Decton Dickinson, Franklin Lake, N.J.). TUNEL staining of tumor tissue samples harvested from in vivo experiment was performed using ApopTag Peroxidase In Situ Oligo Ligation Apoptosis Detection Kit (Chemicon International, Temecula, Calif.) according to the manufacturer's protocol.
As a specificity control, induction of apoptosis was examined by using monoclonal Wnt2 antibody blocked by overnight pre-incubation with blocking peptide (30-fold over the antibody) in A549, LOX and FEMX. […] Same dose of blocking peptide (300 μg/ml for 72 hrs) alone had no effect on cell viability.

[4] = test system: hepatoma cell lines HepG2 and Hep3B; assay: Cytotoxic effects in hepatoma cell lines; format: cell-based; settings: data not shown

With Nc1nc2[nH]cc(CCc3ccc(C(=O)N[C@@H](CCC(=O)O)C(=O)O)cc3)c2c(=O)[nH]1 [Alimta®, pemetrexed] the “decrease in cell proliferation” value ([1]; 1 μg/ml) was “about 41.9%” and the “decrease in cell proliferation” value ([1]; 10 μg/ml) was “about 42.9%”.

For O=c1cc(-c2ccc(O)cc2)oc2cc(O)cc(O)c12 [Apigenin, reference compound], the JNK activity [2] was “increased JNK activity”.

For “blocking peptide: peptide pre-incubated with the anti-Wnt2 antibody (30-fold over the antibody) to block it (SSQRQLCHRHPDVMR; UniProt P09544 49-63, looked up, fragment) [reference compound]”, the cell viability [3] was “no effect”.

B1: anti-Wnt2 monoclonal antibody: mouse monoclonal IgG1 raised against residues 49-63 of human Wnt2; 17F7.G7 was used in the experiments described (protein)
chain: SWWYMRATGGSSRVMCDNVPGLVSSQRQLCHRHPDVMRAISQGVAEWTAECQHQFRQHRWNCNTLDRDHSLFGRVLLRSSRESAFVYAISSAGVVFAITRACSQGEVKSCSCDPKKMGSAKDSKGIFDWGGCSDNIDYGIKFARAFVDAKERKGKDARALMNLHNNRAGRKAVKRFLKQECKCHGVSGSCTLRTCWLAMADFRKTGDYLWRKYNGAIQVVMNQDGTGFTVANERFKKPTKNDLVYFENSPDYCIRDREAGSLGTAGRVCNLTSRGMDSCEVMCCGRGYDTSHVTRMTKCGCKFHWCCAVRCQDCLEALDVHTCKAPKNADWTTAT
In the case of B1, the cytotoxic effects [4] is reported as “cytotoxic effects”.
